{"source": "patent US20220047598A1", "about": "“Use of Casein Kinase 1 Inhibitors For Treating Vascular Diseases” (Qanatpharma AG, priority 2018, published 2022)", "key": {"[1]": {"system": "mouse cremaster skeletal muscle resistance arteries", "assay": "Pressure myography of isolated cremaster skeletal muscle resistance arteries: myogenic responsiveness, compound applied in vitro", "settings": "for dose dependence of reduction in myogenic responsiveness: dose-response in vitro, n=4-6 vessels per dose", "procedure": "(§1) Referring to FIG. 1, microvascular smooth muscle cells were cultured form mouse mesenteric arteries and ERK1/2 phosphorylation was assessed by standard western blotting. Murine cremaster skeletal muscle resistance arteries were assessed by pressure myography. mTNF reverse signaling was induced by the intrinsically active TNF type I receptor construct, sTNFR1-Fc.\nReferring to FIG. 3, mouse cremaster skeletal muscle resistance arteries were isolated and cannulated for pressure myography. Stepwise increases in transmural pressure (20-100 mmHg in 20 mmHg steps) elicit myogenic vasoconstriction.\nReferring to FIG. 4, mouse cremaster skeletal muscle resistance arteries were isolated and cannulated for pressure myography. Stepwise increases in transmural pressure (20-100 mmHg in 20 mmHg steps) elicit myogenic vasoconstriction.\n(§2) Referring to FIG. 5, mouse cremaster skeletal muscle resistance arteries were isolated at mid-rest phase (ZT7) or mid-active phase (ZT19) and cannulated for pressure myography. One-step increases in transmural pressure (60 to 100 mmHg) elicit myogenic vasoconstriction. […] (FIG. 5c) Cremaster muscle resistance arteries underwent pressure myography and western blotting subsequently assessed ERK1/2 phosphorylation. […] (FIG. 5d) Representative western blot.\nReferring to FIG. 6a to c, mice underwent myocardial infarction (ligation of the left-anterior descending coronary artery) or sham surgery. […] Cremaster skeletal muscle resistance arteries were isolated and cannulated for pressure myography."}, "[2]": {"system": "mouse cremaster skeletal muscle resistance arteries", "assay": "Phenylephrine (agonist)-induced vasoconstriction in isolated cremaster resistance arteries", "settings": "for phenylephrine-induced vasoconstriction (vessel health): wild-type arteries treated in vitro"}, "[3]": {"system": "ERK1/2 phosphorylation in cremaster resistance arteries", "assay": "ERK1/2 phosphorylation by western blot in isolated cremaster resistance arteries after pressure myography", "set-up": "species or system mouse", "text": "(§3) Referring to FIG. 3, mouse cremaster skeletal muscle resistance arteries were isolated and cannulated for pressure myography. Stepwise increases in transmural pressure (20-100 mmHg in 20 mmHg steps) elicit myogenic vasoconstriction. […] (FIG. 3d) CKI-7 is not effective in the absence of TNF signaling (i.e., TNF knockout arteries, TNF KO). (FIG. 3e) Phenylephrine-induced vasoconstriction in TNF KO arteries is not affected by CKI-7.\nas §2, with “blot. (FIG. 5e) Resting diameter of the vessels is not affected by PF-670462. (FIG. 5f) Prior to administration of PF-670462, vessel health is intact as shown by robust vasoconstriction to phenylephrine. […] (FIG. 5h) Vessel health, indicated by robust phenylephrine-induced vasoconstriction, is not affected by PF-670462 administration.” for “blot.”"}, "[4]": {"system": "mTNF reverse signaling in cremaster skeletal muscle resistance arteries", "assay": "sTNFR1-Fc-stimulated vasoconstriction / mTNF reverse signaling in cremaster resistance arteries", "set-up": "species or system mouse", "procedure": "as §1, §3"}, "[5]": {"system": "mTNF reverse signaling (ERK1/2 phosphorylation) in mesenteric vascular smooth muscle cells", "assay": "ERK1/2 phosphorylation by western blot in microvascular smooth muscle cells cultured from mouse mesenteric arteries", "format": "cell-based", "settings": "for sTNFR1-Fc-induced ERK1/2 phosphorylation: microvascular smooth muscle cells, inhibitor concentration not given", "procedure": "as §1\nThese findings were verified in cremaster skeletal muscle resistance arteries. […] Importantly, none of the above treatments affected agonist-induced vasoconstriction.\nas §3"}, "[6]": {"system": "mTNF reverse signaling in human embryonic kidney (HEK) cells", "assay": "mTNF reverse signaling (ERK1/2 phosphorylation) in transfected HEK cells stimulated with TNF antibody", "format": "cell-based", "settings": "HEK cells transfected 24 hrs, stimulated 5 min", "text": "Importantly, the cytoplasmic tail of mTNF contains the casein kinase 1 (CK1) recognition site (S(P)-X-X-S) that is removed in Trunc TNF, indicating the necessity for CK1 binding in mTNF reverse signaling."}, "[7]": {"settings": "scavenging TNF; cited from earlier work"}, "[8]": {"system": "skeletal muscle resistance arteries", "settings": "scavenging TNF; cited from earlier work"}, "[9]": {"assay": "Mean arterial blood pressure after acute injection", "format": "in vivo, mouse", "settings": "acute injection 30 mg/kg intraperitoneal, n=3 per group"}, "CK1D/E": {"system": "CK1D/E", "settings": "read-out: published IC50; cited from earlier work"}, "[10]": {"system": "cremaster skeletal muscle resistance arteries", "assay": "In vivo treatment of naive mice, then pressure myography of cremaster arteries", "set-up": "species or system mouse", "settings": "for myogenic responsiveness: naive mice, 24 hrs later, ZT7", "procedure": "Referring to FIG. 6d to f, naive mice were treated with PF-670462 (30-50 mg/kg dissolved in 200 μL water, intraperitoneal injection) or vehicle (200 μL water). 24 hrs later, in mid-rest phase (ZT7), cremaster skeletal muscle resistance arteries underwent pressure myography. […] (FIG. 6e) Phenylephrine-induced vasoconstriction is not altered by in vivo application of PF-670462."}, "[11]": {"system": "heart failure (myocardial infarction) mice", "assay": "Chronic treatment of mice after myocardial infarction (heart failure) or sham surgery", "format": "in vivo, mouse", "settings": "7 wks", "procedure": "Referring to FIG. 6g to j, following myocardial infarction or sham surgery, mice were chronically treated with PF-670462 (30 mg/kg, intraperitoneal injection) or vehicle (DMSO) for 7 wks (5 days/wk). […] (FIG. 6h) HF-induced elevations in myogenic tone are normalized by chronic treatment with PF-670462. (FIG. 6i)\nPhenylephrine-induced vasoconstriction is intact with chronic PF-670462 treatment. Reduced tone at lower concentrations of phenylephrine in the PF-670462-treated group is the result of changes in resting myogenic tone. (FIG. 6j) Cardiac output, the quantification of blood outflow from the heart assessed with echocardiography, is elevated with chronic PF-670462 treatment."}, "[12]": {"settings": "in vitro application, concentration not given"}, "[13]": {"settings": "chronic treatment 30 mg/kg intraperitoneal"}}, "note": "“Also recorded” adds a separate entry of the source."}
{"compound": "Nc1ncnc2c1c(COc1cccc(Cl)c1)nn2C1CCOCC1", "note": "[PF-4800567]", "values": [{"measurement": "myogenic responsiveness", "setting": "[1]; 30 μM in vitro", "result": "abrogates myogenic responsiveness"}, {"measurement": "dose dependence of reduction in myogenic responsiveness", "setting": "[1]", "result": "dose-dependent reduction"}, {"measurement": "concentration inhibiting myogenic responses relative to the IC50", "setting": "[1]; fold greater than the IC50", "result": "~1000", "unit": "×"}, {"measurement": "reduction in phenylephrine-induced vasoconstriction after correction to baseline tone", "setting": "[2]; 30 μM dose, corrected to baseline tone", "result": "remains after correction to baseline tone"}, {"measurement": "phenylephrine-induced vasoconstriction", "setting": "[2]; arteries treated at the 30 μM dose", "result": "reduced"}]}
{"compound": "NCCNS(=O)(=O)c1ccc(Cl)c2ccncc12", "note": "[CKI-7]", "values": [{"measurement": "sTNFR1-Fc-stimulated ERK1/2 phosphorylation", "setting": "[3]; isolated cremaster resistance arteries after pressure myography", "result": "inhibited"}, {"measurement": "myogenic responsiveness", "setting": "[1]; 10 μM in vitro, transmural pressure 20-100 mmHg in 20 mmHg steps", "result": "reduces myogenic responsiveness"}, {"measurement": "myogenic responsiveness in TNF knockout arteries", "setting": "[1]; TNF−/− (TNF KO) arteries, in vitro", "result": "not effective"}, {"measurement": "dose dependence of reduction in myogenic responsiveness", "setting": "[1]", "result": "dose-dependent reductions"}, {"measurement": "myogenic responsiveness", "setting": "[1]; [12]", "result": "reduces myogenic responsiveness"}, {"measurement": "sTNFR1-Fc-induced mTNF reverse signaling", "setting": "[4]; cremaster arteries, in vitro application", "result": "abrogates"}, {"measurement": "sTNFR1-Fc-stimulated vasoconstriction", "setting": "[4]; sTNFR1-Fc 100 ng/mL", "result": "prevented"}, {"measurement": "ERK1/2 phosphorylation in response to sTNFRI-Fc", "setting": "[5]; mesenteric vascular smooth muscle cells, inhibitor 1 μM", "result": "inhibited"}, {"measurement": "sTNFR1-Fc-induced ERK1/2 phosphorylation", "setting": "[5]", "result": "abolished"}, {"measurement": "phenylephrine-induced vasoconstriction in TNF KO arteries", "setting": "[2]; TNF KO arteries", "result": "not affected"}, {"measurement": "phenylephrine-induced vasoconstriction (vessel health)", "setting": "[2]", "result": "remains intact"}]}
{"compound": "Adalimumab", "values": [{"measurement": "mTNF reverse signaling (ERK1/2 phosphorylation)", "setting": "[6]", "result": "not stimulated unless the HEK cells express a tumour necrosis factor (TNF) plasmid construct"}]}
{"compound": "Etanercept", "values": [{"measurement": "systemic blood pressure", "setting": "[7]", "result": "reduces systemic blood pressure"}, {"measurement": "skeletal muscle resistance artery myogenic responsiveness", "setting": "[8]", "result": "attenuates skeletal muscle resistance artery myogenic responsiveness"}]}
{"compound": "Nc1nccc(-c2c(-c3ccc(F)cc3)ncn2C2CCCCC2)n1", "note": "[PF-670462]", "values": [{"measurement": "mean arterial blood pressure (MAP)", "setting": "[9]", "result": "reduces mean arterial blood pressure"}, {"measurement": "ERK1/2 phosphorylation, ZT7 versus ZT19", "setting": "[3]; cremaster arteries isolated at ZT7 or ZT19", "result": "reduces ERK1/2 phosphorylation to a greater extent during the rest phase (ZT7)"}, {"measurement": "IC50", "setting": "CK1D/E", "result": "7.7 to 14", "unit": "nM"}, {"measurement": "myogenic responsiveness", "setting": "[1]; 550 nM in vitro", "result": "reduces myogenic responsiveness"}, {"measurement": "myogenic responsiveness in arteries from HF mice", "setting": "[1]; 550 nM in vitro in bath, 8 weeks post myocardial infarction", "result": "normalizes myogenic responsiveness"}, {"measurement": "myogenic tone in sham-operated mice", "setting": "[1]; 550 nM in vitro in bath, sham arteries", "result": "does not affect myogenic tone"}, {"measurement": "myogenic tone in arteries from HF and sham mice", "setting": "[1]; 550 nM in vitro, 30 minutes, both HF and sham groups", "result": "attenuated to same level"}, {"measurement": "reversibility of the reduction in myogenic responsiveness", "setting": "[1]; 550 nM in vitro, repeated replacements of the incubating buffer", "result": "reversible"}, {"measurement": "myogenic responsiveness at mid-rest phase", "setting": "[1]; 10 μM in vitro, ZT7, one-step pressure 60 to 100 mmHg", "result": "reduces myogenic responsiveness only during the rest phase (ZT7)"}, {"measurement": "myogenic responsiveness at mid-active phase", "setting": "[1]; 10 μM in vitro, ZT19, one-step pressure 60 to 100 mmHg", "result": "not during the active phase (ZT19)"}, {"measurement": "dose dependence of reduction in myogenic tone at mid-rest phase", "setting": "[1]; ZT7, n=4-7 vessels per dose", "result": "dose-dependently reduces myogenic tone"}, {"measurement": "resting diameter of the vessels", "setting": "[1]; ZT7/ZT19 arteries", "result": "not affected"}, {"measurement": "vessel dilation", "setting": "[1]; ZT7/ZT19 arteries, before pressure stimulation", "result": "not affected"}, {"measurement": "dose dependence of reduction in myogenic responsiveness", "setting": "[1]", "result": "dose-dependent decreases"}, {"measurement": "myogenic responsiveness", "setting": "[1]; [12]", "result": "reduces myogenic responsiveness"}, {"measurement": "myogenic responsiveness in wild-type arteries", "setting": "[1]; wild-type (WT) arteries, compared with TNF knockout", "result": "inhibits myogenic responsiveness"}, {"measurement": "myogenic responsiveness", "setting": "[10]; 30 mg/kg intraperitoneal", "result": "reduce myogenic responsiveness"}, {"measurement": "myogenic responsiveness", "setting": "[10]; 50 mg/kg intraperitoneal", "result": "reduce myogenic responsiveness"}, {"measurement": "myogenic responsiveness in isolated cremaster arteries", "setting": "[10]; applied in vivo, dose not given", "result": "reduced myogenic responsiveness"}, {"measurement": "phenylephrine-induced vasoconstriction", "setting": "[10]; in vivo application 30-50 mg/kg intraperitoneal", "result": "not altered"}, {"measurement": "sTNFR1-Fc-induced ERK1/2 phosphorylation", "setting": "[5]", "result": "abolished"}, {"measurement": "HF-induced elevations in myogenic tone", "setting": "[11]; 30 mg/kg intraperitoneal, 5 days/wk", "result": "normalized"}, {"measurement": "cardiac output (echocardiography)", "setting": "[11]; [13]", "result": "elevated"}, {"measurement": "phenylephrine-induced vasoconstriction", "setting": "[11]; [13]", "result": "intact"}, {"measurement": "phenylephrine-induced vasoconstriction", "setting": "[2]; arteries from HF and sham mice, 550 nM in vitro", "result": "intact"}, {"measurement": "phenylephrine-induced vasoconstriction (vessel health)", "setting": "[2]", "result": "intact; also recorded: not affected"}]}
